These results are taken from patent publication US20180251431A1 (VERTEX PHARMACEUTICALS INCORPORATED, priority 2016, published 2018).

The experiment deals with HEK293 cells. The experiment in a line: HEK293 VLCFA-LPC IC50 determination (13C-labeled C26:0 LPC by UHPLC/MS). Type of experiment: cell-based, human. The note with it: Homo sapiens, average of one or more replicates, read-out: Average HEK293 IC50. The procedure, abridged: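 Suspension HEK293 cells (final 0.5 million/mL after mixing with equal volume) incubated 48 hours with compound plus 13C-acetate (1.0 mg/mL in added media), shaking at 37° C. Lipids extracted with hexane/isopropanol or methanol, C13:0 LPC standard. UHPLC/MS of 13C-labeled C26:0 LPC (638.500/104.100 m/z); IC50 by four-parameter fit.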

Where [1] appears, read: HEK293, 48 h, 13C-labeled C26:0 LPC, 48 hours.

Like-named read-outs stand apart in the source and are kept apart here.

Consider `Cc1csc(-n2ccc(NC(=O)C3(c4ccccc4F)CC3)n2)n1` [Compound 374, 1-(2-fluorophenyl)-N-(1-(4-methylthiazol-2-yl)-1H-pyrazol-3-yl)cyclopropane-1-carboxamide], for which the IC50 (usually the concentration that inhibits the measured activity by half) under setting [1] worked out at 470 nM.
In the case of `O=C(Nc1ccn(-c2ncco2)n1)C1(c2ccccc2F)CC1` [Compound 375, 1-(2-fluorophenyl)-N-(1-oxazol-2-ylpyrazol-3-yl)cyclopropanecarboxamide], the IC50 under setting [1] was determined as 500 nM.
Same read-out and setting: with `Cc1cc(-n2ccc(NC(=O)C3(c4ccccc4F)CC3)n2)cnc1F` [Compound 376, N-[1-(6-fluoro-5-methyl-3-pyridyl)pyrazol-3-yl]-1-(2-fluorophenyl)cyclopropanecarboxamide] the figure was 65 nM; with `O=C(Nc1ccn(-c2ccc(F)nc2)n1)C1(c2ccccc2F)CC1` [Compound 377, 1-(2-fluorophenyl)-N-[1-(6-fluoro-3-pyridyl)pyrazol-3-yl]cyclopropanecarboxamide], 23 nM.
Same read-out and setting: with `COc1ncc(-n2ccc(NC(=O)C3(c4ccccc4F)CC3)n2)cc1Cl` [Compound 378, N-(1-(5-chloro-6-methoxypyridin-3-yl)-1H-pyrazol-3-yl)-1-(2-fluorophenyl)cyclopropane-1-carboxamide] the figure was 120 nM.
Consider `O=C(Nc1ccn(-c2cnc(Cl)c(Cl)c2)n1)C1(c2ccccc2F)CC1` [Compound 379, N-[1-(5,6-dichloro-3-pyridyl)pyrazol-3-yl]-1-(2-fluorophenyl)cyclopropanecarboxamide], for which the IC50 under setting [1] amounted to 120 nM.
On the same count and under the same terms, with `O=C(Nc1ccn(-c2cnc(C(F)(F)F)nc2)n1)C1(c2ccccc2F)CC1` [Compound 381, 1-(2-fluorophenyl)-N-[1-[2-(trifluoromethyl)pyrimidin-5-yl]pyrazol-3-yl]cyclopropanecarboxamide] the figure was above 5000 nM.
Same read-out and setting: the result for `CC(C)(O)c1ncc(-n2ccc(NC(=O)C3(c4ccccc4F)CC3)n2)cn1` [Compound 382, 1-(2-fluorophenyl)-N-[1-[2-(1-hydroxy-1-methyl-ethyl)pyrimidin-5-yl]pyrazol-3-yl]cyclopropanecarboxamide] reads above 5000 nM.
The same measure, in the same setting: the result for `CC(C)(C)c1ncc(-n2ccc(NC(=O)C3(c4ccccc4F)CC3)n2)cn1` [Compound 383, N-[1-(2-tert-butylpyrimidin-5-yl)pyrazol-3-yl]-1-(2-fluorophenyl)cyclopropanecarboxamide] reads above 5000 nM; that for `Nc1c(F)cc(-n2ccc(NC(=O)C3(c4ccccc4F)CC3)n2)cc1F` [Compound 384, N-[1-(4-amino-3,5-difluoro-phenyl)pyrazol-3-yl]-1-(2-fluorophenyl)cyclopropanecarboxamide], 980 nM; that for `Nc1cc(-n2ccc(NC(=O)C3(c4ccccc4F)CC3)n2)ccc1F` [Compound 385, N-[1-(3-amino-4-fluoro-phenyl)pyrazol-3-yl]-1-(2-fluorophenyl)cyclopropanecarboxamide], 1400 nM.
As to `Cc1cc(NC(=O)C2(c3ccccc3F)CC2)nn1-c1ccccc1` [Compound 386, 1-(2-fluorophenyl)-N-(5-methyl-1-phenyl-1H-pyrazol-3-yl)cyclopropane-1-carboxamide], for the setting “HEK293, HEK293 cells”, the IC50 was above 5000 nM.
With `Nc1ccc(-n2ccc(NC(=O)C3(c4ccccc4F)CC3)n2)cc1F` [Compound 387, N-[1-(4-amino-3-fluoro-phenyl)pyrazol-3-yl]-1-(2-fluorophenyl)cyclopropanecarboxamide], the IC50 under setting [1] was 1100 nM.
On the same count and under the same terms, the result for `O=C(Nc1ccn(-c2cnns2)n1)C1(c2ccccc2F)CC1` [Compound 388, 1-(2-fluorophenyl)-N-[1-(thiadiazol-5-yl)pyrazol-3-yl]cyclopropanecarboxamide] reads 37 nM.
In the case of `COc1ccccc1C1(C(=O)Nc2ccn(-c3ccnc(F)c3)n2)CC1` [Compound 389, N-[1-(2-fluoro-4-pyridyl)pyrazol-3-yl]-1-(2-methoxyphenyl)cyclopropanecarboxamide], for the setting “HEK293, HEK293 cells”, the IC50 is above 5000 nM.
In the case of `O=C(Nc1ccn(-c2ncc(F)cc2F)n1)C1(c2ccccc2F)CC1` [Compound 391, N-(1-(3,5-difluoropyridin-2-yl)-1H-pyrazol-3-yl)-1-(2-fluorophenyl)cyclopropane-1-carboxamide], the 50% inhibitory concentration (IC50) under setting [1] was 190 nM.
On to `Cn1cnc(-n2ccc(NC(=O)C3(c4ccccc4F)CC3)n2)c1` [Compound 392, 1-(2-fluorophenyl)-N-(1-(1-methyl-1H-imidazol-4-yl)-1H-pyrazol-3-yl)cyclopropane-1-carboxamide], for which the IC50 (HEK293, HEK293 cells) is above 5000 nM.
With `Nc1cc(-n2ccc(NC(=O)C3(c4ccccc4F)CC3)n2)ccn1` [Compound 393, N-[1-(2-amino-4-pyridyl)pyrazol-3-yl]-1-(2-fluorophenyl)cyclopropanecarboxamide], the IC50 (HEK293, HEK293 cells) came to 1900 nM.
Turning to `CN(C)c1ccc(-n2ccc(NC(=O)C3(c4ccccc4F)CC3)n2)cn1` [Compound 394, N-[1-[6-(dimethylamino)-3-pyridyl]pyrazol-3-yl]-1-(2-fluorophenyl)cyclopropanecarboxamide], the IC50 (HEK293, HEK293 cells) is above 5000 nM.
On the same count and under the same terms, the result for `O=C(Nc1ccn(-c2ccnc(OC(F)F)c2)n1)C1(c2ccccc2F)CC1` [Compound 395, N-(1-(2-(difluoromethoxy)pyridin-4-yl)-1H-pyrazol-3-yl)-1-(2-fluorophenyl)cyclopropane-1-carboxamide] reads above 5000 nM; that for `O=C(Nc1ccn(-c2ccnc(C(F)F)c2)n1)C1(c2ccccc2F)CC1` [Compound 396, N-[1-[2-(difluoromethyl)-4-pyridyl]pyrazol-3-yl]-1-(2-fluorophenyl)cyclopropanecarboxamide], above 5000 nM.
On the same count and under the same terms, with `O=C(Nc1ccn(-c2ccc(C(F)F)nc2)n1)C1(c2ccccc2F)CC1` [Compound 397, N-[1-[6-(difluoromethyl)-3-pyridyl]pyrazol-3-yl]-1-(2-fluorophenyl)cyclopropanecarboxamide] the figure was above 5000 nM.
For `O=C(Nc1ccn(-c2ccc(Cl)cn2)n1)C1(c2ccccc2F)CC1` [Compound 398, N-(1-(5-chloropyridin-2-yl)-1H-pyrazol-3-yl)-1-(2-fluorophenyl)cyclopropane-1-carboxamide], the IC50 under setting [1] is above 5000 nM.
Consider `Nc1ncc(-n2ccc(NC(=O)C3(c4ccccc4F)CC3)n2)cc1F` [Compound 399, N-[1-(6-amino-5-fluoro-3-pyridyl)pyrazol-3-yl]-1-(2-fluorophenyl)cyclopropanecarboxamide], for which the IC50 (HEK293, HEK293 cells) was found to be 280 nM.
On the same count and under the same terms, with `Cn1cc(-n2ccc(NC(=O)C3(c4ccccc4F)CC3)n2)nn1` [Compound 400, 1-(2-fluorophenyl)-N-(1-(1-methyl-1H-1,2,3-triazol-4-yl)-1H-pyrazol-3-yl)cyclopropane-1-carboxamide] the figure was above 5000 nM.
`Cc1cc(-n2ccc(NC(=O)C3(c4ccccc4F)CC3)n2)sn1` [Compound 401, 1-(2-fluorophenyl)-N-[1-(3-methylisothiazol-5-yl)pyrazol-3-yl]cyclopropanecarboxamide]: under setting [1], the IC50 is 2300 nM.
Turning to `O=C(Nc1ccn(-c2ccsn2)n1)C1(c2ccccc2F)CC1` [Compound 402, 1-(2-fluorophenyl)-N-(1-isothiazol-3-ylpyrazol-3-yl)cyclopropanecarboxamide], the IC50 under setting [1] turned out to be 60 nM.
On to `Cc1nn(C)cc1-n1ccc(NC(=O)C2(c3ccccc3F)CC2)n1` [Compound 403, N-[1-(1,3-dimethylpyrazol-4-yl)pyrazol-3-yl]-1-(2-fluorophenyl)cyclopropanecarboxamide], for which the IC50 under setting [1] is above 5000 nM.
The same measure, in the same setting: with `Cc1nnc(-n2ccc(NC(=O)C3(c4ccccc4F)CC3)n2)s1` [Compound 404, 1-(2-fluorophenyl)-N-[1-(5-methyl-1,3,4-thiadiazol-2-yl)pyrazol-3-yl]cyclopropanecarboxamide] the figure was above 5000 nM; with `O=C(Nc1ccn(-c2ncns2)n1)C1(c2ccccc2F)CC1` [Compound 406, 1-(2-fluorophenyl)-N-[1-(1,2,4-thiadiazol-5-yl)pyrazol-3-yl]cyclopropanecarboxamide], 18 nM.
For the compound `COc1cc(-n2ccc(NC(=O)C3(c4ncccn4)CC3)n2)ccn1` [Compound 407, N-[1-(2-methoxy-4-pyridyl)pyrazol-3-yl]-1-pyrimidin-2-yl-cyclopropanecarboxamide], the IC50 (HEK293, HEK293 cells) was above 5000 nM.
As for `COc1ncc(-n2ccc(NC(=O)C3(c4ccccc4F)CC3)n2)s1` [Compound 408, 1-(2-fluorophenyl)-N-[1-(2-methoxythiazol-5-yl)pyrazol-3-yl]cyclopropanecarboxamide], the IC50 (HEK293, HEK293 cells) worked out at 1000 nM.
Still for that read-out and setting: the result for `O=C(Nc1ccn(-c2ccc(OC(F)F)nc2)n1)C1(c2ccccc2F)CC1` [Compound 409, N-[1-[6-(difluoromethoxy)-3-pyridyl]pyrazol-3-yl]-1-(2-fluorophenyl)cyclopropanecarboxamide] reads above 5000 nM.
Consider `O=C(Nc1ccn(-c2cnc(Cl)s2)n1)C1(c2ccccc2F)CC1` [Compound 410, N-[1-(2-chlorothiazol-5-yl)pyrazol-3-yl]-1-(2-fluorophenyl)cyclopropanecarboxamide], for which the IC50 (HEK293, HEK293 cells) turned out to be 100 nM.
Take `COc1cnccc1-n1ccc(NC(=O)C2(c3ccccc3F)CC2)n1` [Compound 411, 1-(2-fluorophenyl)-N-[1-(3-methoxy-4-pyridyl)pyrazol-3-yl]cyclopropanecarboxamide]: the IC50 (HEK293, HEK293 cells) was above 5000 nM.
The same measure, in the same setting: with `Cc1nc(C)c(-n2ccc(NC(=O)C3(c4ccccc4F)CC3)n2)s1` [Compound 413, N-[1-(2,4-dimethylthiazol-5-yl)pyrazol-3-yl]-1-(2-fluorophenyl)cyclopropanecarboxamide] the figure was above 5000 nM; with `Cc1nn(C(F)F)cc1-n1ccc(NC(=O)C2(c3ccccc3F)CC2)n1` [Compound 414, N-[1-[1-(difluoromethyl)-3-methyl-pyrazol-4-yl]pyrazol-3-yl]-1-(2-fluorophenyl)cyclopropanecarboxamide], above 5000 nM.
